Measured values from patent publication US12195477B2, “Derivative of berberine, and the preparation method and application thereof” (priority 2021, dated 2025).

Columns and labels:
[1] = system: primary cardiac cells from neonatal mice after H2O2 treatment; test: SOD in H2O2-injured primary cardiac cells (WST-1 assay); type: cell-based
Protocol: Dismutation of superoxide anion can be catalyzed by superoxide dismutase (SOD) to give hydrogen peroxide and oxygen. SOD is a kind of important antioxidases in organisms. SOD plays a vital role in the equilibrium between oxidation and anti-oxidation in organisms. SOD is able to scavenge superoxide anion free radicals and protect cells from injuries. In this test, the SOD activity was determined using WST-1 assay.
(§1) After disinfecting the neonatal mice (within 3 days after birth) by alcohol, the skin and sternum of the left chest were cut off at one time using a scissor. The heart was then squeezed out, taken and put into a pre-cooled FBS-free DMEM culture medium with a curved forceps. The blood vessels on the surface of heart, the residual blood and the attached lung tissue were removed. The heart tissue was cut into pieces with homogeneous size. The heart pieces were drawn into a 15 ml centrifuge tube, and the supernatant was discarded. The tissue was rinsed by PBS for 2-3 times. The trypsinization solution was added at equivalent volume of the heart tissue. The centrifuge tube was kept shaken to accelerate digestion. After the solution become turbid, the digestion was stopped by transferring the solution to DMEM culture medium. After the digestion of all heart tissues was completed, the digest was filtered by a sieve, and centrifuged at 1500 rpm for 5 min. […]
(§2) After digestion, the primary cardiac cells from neonatal mice were re-suspended into a 6-well plate at a appropriate concentration with volume of 2 mL for each well. […] The activity of SOD and the content of ATP in the cells were determined according to the instruction provided in the SOD and ATP detection kit, respectively. […]
(§3) The experiment data were expressed as mean±standard error. The SOD and ATP content in the cells in each group were analyzed by One-way ANOVA, with P<0.05 indicating a significant difference. All experiment results were statistically analyzed and plotted using Graphpad Prism 8.0.

[2] = system: primary cardiac cells from neonatal mice; test: Cytotoxicity test, CCK-8 assay; type: cell-based; settings: 24 hours
From the text: The toxicity of the novel compound, brominated 9-O-propyl berberine thiazole formate, on the primary cardiac cells from neonatal mice was detected using CCK-8 assay. The CCK-8 agent contains WST-8, which has the chemical name: 2-(2-methoxy-4-nitrophenyl)-3-(4-nitrophenyl)-5-(2,4-disulfophenyl)-2H-tetrazolium sodium salt. It can be reduced to yellow formazan with high water solubility by the dehydrogenase existing in the mitochondrion in a cell in the presence of electron carrier 1-methoxy-5-methylphenazinium methyl sulfate (1-Methoxy PMS). The amount of formazan generated is proportional to the number of live cells. The absorbance is detected at a wavelength of 450 nm by an enzyme-linked immunosorbent assay, which represents the number of live cells, in which a larger value indicates a higher cell activity. […]
After digestion, the primary cardiac cells from neonatal mice were re-suspended into a 96-well plate at a appropriate concentration with volume of 100 μl for each well. […] After incubation at 37° C. for 1-4 hours, the mixture was placed in a micro-plate reader and shaken for 10 s. The absorbance at 450 nm (OD450) was recorded.
The relative inhibition rate of the compound at various concentrations on the primary cardiac cells from neonatal mice was calculated based on the equation: cell inhibition rate (%)=(1−OD450 of the sample group/OD450 of the control group)*100. […]

[3] = system: myocardial infarcted mice; test: Mouse model of myocardial infarction (ligation of the left anterior descending coronary artery), cardiac function by ultrasonography; type: in vivo, C57BL/6 male mice; settings: 2 weeks
From the text: The mouse model of myocardial infarction was established by ligation of the left anterior descending branch of the coronary artery. The agent was then administrated to the mice to determine the effect of the test sample on myocardial ischemia, and the effect of the test sample on the cardiac functions of the myocardial infarct mice.
Random grouping: the C57BL/6 mice were randomly divided into 5 groups, namely the sham-operation group, the myocardial infarction group, the berberine group (berberine at a dosage of 40 mg/kg·d^−1), the test compound group (brominated 9-O-propyl berberine thiazole formate at a dosage of 40 mg/kg·d^−1) and the positive control group (sacubitril and valsartan sodium at a dosage of 26 mg/kg·d^−1).
The mouse model of myocardial ischemia was established by ligation of the left anterior descending branch of the coronary artery. Healthy male C57BL/6 mice (28±2 g) were anesthetized by intraperitoneal injection of aphrodin (0.2 g/kg). The anesthetic mice were placed in a supine position on the operation desk with the trachea connected to a ventilator by inserting a tracheal tube. An incision of about 0.5˜4.0 cm was made on the skin of the left chest from the upper left to the lower right. Pectoralis minor and serratus anterior were separated. The intercostal muscle was bluntly separated between the fourth and fifth rib, and the heart was slightly squeezed out.
Except for the sham-operation group, coronary artery ligation was performed to all other mice. The mice were randomly divided into 4 groups 24 hours after ligation, including the myocardial infarction group, the berberine group, the brominated 9-O-propyl berberine thiazole formate group and the positive control group. Blank solvent, berberine, brominated 9-O-propyl berberine thiazole formate and positive control sacubitril and valsartan sodium were administrated to the mice by gavage (as shown in Table 1) for consecutive 14 days. […]
The Experiment data were expressed as mean±standard error. […] All experiment results were statistically analyzed by Graphpad Prism 8.0.

[4] = system: primary cardiac cells from neonatal mice after H2O2 treatment; test: ATP in H2O2-injured primary cardiac cells (luciferase kit); type: cell-based
From the text: A kit has been used in this study, based on that ATP is demanded to provide energy during the fluorescence production by the fluorescein catalyzed by the firefly luciferase (also termed as luciferase). When both luciferase and fluorescein are excessive, in a certain concentration range, the fluorescence generated is proportional to the concentration of ATP. That is, the concentration of ATP in the solution can be detected sensitively.
as §1, §2, §3

[5] = vs. the model group, among 1, 2.5 and 5 μM, H2O2 100 μM
[6] = 40 mg/kg gavage once per day, ##P<0.01

Question: For `COc1ccc2cc3[n+](cc2c1OCCCOC(=O)c1cscn1)CCc1cc2c(cc1-3)OCO2.[Br-]` [9-(3-((thiazole-4-carbonyl)oxy)propoxy)-10-methoxy-5,6-dihydro-[1,3]dioxolo[4,5-g]isoquinolino[3,2-a]isoquinolin-7-ium bromide], which “SOD content vs. the model group” value ([1]; 1, 2.5 and 5 μM, H2O2 100 μM, 24 hours, #P<0.05, ###P<0.001) is on record?
Answer: increased

Question: And the “SOD effect compared with berberine” value ([1]; same concentration (5 μM), &P<0.05)?
Answer: apparently better than the effect of berberine at the same concentration

Question: And the “highest enhancement of the SOD content” value [1, 5]?
Answer: 43.4%

Question: And the inhibition at 1000 µM ([2]; Mus musculus, 1000 μM, CCK-8, OD450, read-out: cell inhibition rate)?
Answer: 41%

Question: And the “toxicity on primary cardiac cells” value ([2]; concentration range tested 0.1-1000 μM)?
Answer: low toxicity

Question: What about the “ejection fraction (EF) vs. the myocardial infarction group” value [3, 6] of the same compound?
Answer: significantly increased

Question: What about the “fraction shortening (FS) vs. the myocardial infarction group” value [3, 6] of the same compound?
Answer: significantly increased

Question: And the “effect on EF and FS compared with berberine” value ([3]; both 40 mg/kg gavage, &P<0.05 vs. the berberine group)?
Answer: better than that of the berberine

Question: And the “ATP content vs. the model group” value ([4]; 1, 2.5 and 5 μM, H2O2 100 μM, 24 hours, ##P<0.01, ###P<0.001)?
Answer: increased

Question: And the “ATP effect compared with berberine” value ([4]; same concentration (5 μM), &&P<0.01)?
Answer: apparently better than the effect of berberine at the same concentration

Question: And the “highest enhancement of the ATP content” value [4, 5]?
Answer: 59.1%
